Data on 4 molecules can be found in patent US12252524B2, “GIP/GLP1 co-agonist compounds” (Eli Lilly and Company, priority 2018, dated 2025).

Each structure is given as a SMILES string. Numbered stars: 1 amine (or outer) side, 2 acyl side, 3 side chain; on linkers, the order of the positions; unused ones are H or OH. Square brackets hold non-standard residues; d marks the D form. Side chains are listed from the residue outwards. Peptide text beside a SMILES is read from it. * marks the point of attachment. C20 diacid = O=C(O)CCCCCCCCCCCCCCCCCCC(=O)*; αMePhe(2-F) = C[C@](N)(Cc1ccccc1F)C(=O)O; γGlu = O=C(O)[C@H](CCC(=O)[*:2])N[*:1]; αMeL = CC(C)C[C@](C)(N)C(=O)O; AEEA = NCCOCCOCC(=O)O; Aib = CC(C)(N)C(=O)O

The target in experiment [1] is T1, gastric inhibitory peptide receptor (GIPR) (Homo sapiens, UniProt P48546).
T1 sequence (P48546 22-466): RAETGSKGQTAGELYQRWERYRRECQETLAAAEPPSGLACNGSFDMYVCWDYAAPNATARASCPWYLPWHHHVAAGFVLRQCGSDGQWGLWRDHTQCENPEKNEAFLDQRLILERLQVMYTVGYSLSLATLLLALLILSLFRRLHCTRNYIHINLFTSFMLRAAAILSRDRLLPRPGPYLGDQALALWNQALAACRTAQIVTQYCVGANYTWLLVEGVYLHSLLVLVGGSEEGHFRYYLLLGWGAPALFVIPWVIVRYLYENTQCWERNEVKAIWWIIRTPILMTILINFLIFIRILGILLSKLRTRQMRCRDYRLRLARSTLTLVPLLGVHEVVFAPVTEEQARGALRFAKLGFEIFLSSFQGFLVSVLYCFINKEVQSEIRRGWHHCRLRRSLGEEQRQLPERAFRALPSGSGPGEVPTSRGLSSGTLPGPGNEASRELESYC
Description: cAMP pharmacological functional assay in presence of casein, hGIPR. The format is cell-based. Particulars: HEK293 cells expressing hGIPR, 0.1% Casein, geometric mean; read-out: hGIPR cAMP Rel EC50 nM (SEM, n).

For experiment [2], the target named is human GLP-1 receptor (GLP-1R) (Homo sapiens, UniProt P43220). Description: cAMP pharmacological functional assay in presence of casein, hGLP-1R. The experiment is classed as cell-based. Particulars: HEK293 cells expressing hGLP-1R, 0.1% Casein, geometric mean; read-out: hGLP1R cAMP Rel EC50 nM (SEM, n).
Chain of human GLP-1 receptor (GLP-1R) (P43220 24-463): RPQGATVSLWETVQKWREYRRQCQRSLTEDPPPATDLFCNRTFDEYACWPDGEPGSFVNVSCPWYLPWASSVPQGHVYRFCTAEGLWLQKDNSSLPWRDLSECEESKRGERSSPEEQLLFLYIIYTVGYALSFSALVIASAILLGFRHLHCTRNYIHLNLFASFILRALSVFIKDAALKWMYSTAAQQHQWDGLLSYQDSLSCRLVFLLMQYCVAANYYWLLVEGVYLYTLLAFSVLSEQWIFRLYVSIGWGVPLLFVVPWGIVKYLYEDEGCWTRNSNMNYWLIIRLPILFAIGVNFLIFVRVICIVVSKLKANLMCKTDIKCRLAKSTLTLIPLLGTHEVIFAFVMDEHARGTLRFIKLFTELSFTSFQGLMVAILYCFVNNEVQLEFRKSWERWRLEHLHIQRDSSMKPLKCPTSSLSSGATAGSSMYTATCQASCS
Another experiment has as its target T2, human GIP receptor (Homo sapiens, UniProt P48546).
T2 construct: expressed in transfected cells; crude membranes
T2 sequence (P48546 22-466): T1 sequence (P48546 22-466)
As to the kind of experiment: [125I]-GIP binding (SPA), human GIP receptor. Particulars: read-out: hGIPR Ki, nM (SEM, n). On the procedure: (§1) Two methods are used for the preparation of crude cell membranes.
(§2) Method 1: Frozen cell pellets are lysed on ice in hypotonic buffer containing 50 mM Tris HCl, pH 7.5, and Roche Complete™ Protease Inhibitors with EDTA. The cell suspension is disrupted using a glass Potter-Elvehjem homogenizer fitted with a Teflon® pestle for 25 strokes. The homogenate is centrifuged at 4° C. at 1100×g for 10 minutes. The supernatant is collected and stored on ice while the pellets are resuspended in homogenization buffer and rehomogenized as described above. The homogenate is centrifuged at 1100×g for 10 minutes. The second supernatant is combined with the first supernatant and centrifuged at 35000×g for 1 hour at 4° C. The resulting membrane pellet is resuspended in homogenization buffer containing protease inhibitors at approximately 1 to 3 mg/mL, quick frozen in liquid nitrogen and stored as aliquots in a−80° C. freezer until use.
(§3) Method 2: Frozen cell pellets are lysed on ice in hypotonic buffer containing 50 mM Tris HCl, pH 7.5, 1 mM MgCl2, Roche Complete™ EDTA-free Protease Inhibitors and 25 units/ml DNAse I (Invitrogen). The cell suspension is disrupted using a glass Potter-Elvehjem homogenizer fitted with a Teflon® pestle for 20 to 25 strokes. The homogenate is centrifuged at 4° C. at 1800×g for 15 minutes. The supernatant is collected and stored on ice while the pellets are resuspended in homogenization buffer (without DNAse I) and rehomogenized as described above. The homogenate is centrifuged at 1800×g for 15 minutes. The second supernatant is combined with the first supernatant and centrifuged an additional time at 1800×g for 15 minutes. The overall supernatant is then centrifuged at 25000×g for 30 minutes at 4° C. The resulting membrane pellet is resuspended in homogenization buffer (without DNAse I) containing protease inhibitors at approximately 1 to 3 mg/mL and stored as aliquots in a−80° C. freezer until use.
The binding buffer contains 25 mM HEPES, pH 7.4, 2.5 mM CaCl2, 1 mM MgCl2, 0.1% (w/v) bacitracin, 0.003% (w/v) TWEEN©-20, and Roche Complete™ Protease Inhibitors without EDTA. Peptides and GIP are thawed and 3 fold serially diluted in 100% DMSO (10 point concentration response curves). […] Plates are sealed and mixed on a plate shaker (setting 6) for 1 minute and read with a PerkinElmer Trilux MicroBeta© scintillation counter after 2.5 to 12 hours of incubation/settling time at room temperature.
(§4) Data are analyzed using four-parameter (curve maximum, curve minimum, IC50, Hill slope) nonlinear regression routines (Genedata Screener, version 12.0.4, Genedata AG, Basal, Switzerland). […] Values for Ki are reported as the geometric mean, with error expressed as the standard error of the mean (SEM) and n is equal to the number of independent replicates (determined in assays performed on different days). […] The Ki Ratio is a rapid indication of the apparent affinity of a peptide compared to the native control peptide. […] SEM is only calculated when n=2 or greater non-qualified results exist. Means are expressed as GeoMetric means with the standard error of the mean (SEM) and the number of replicates (n) indicated in parenthesis.

The next experiment deals with T3, human Gcg receptor (Homo sapiens, UniProt P47871).
T3 construct: expressed in transfected cells; crude membranes
T3 sequence (P47871 26-477): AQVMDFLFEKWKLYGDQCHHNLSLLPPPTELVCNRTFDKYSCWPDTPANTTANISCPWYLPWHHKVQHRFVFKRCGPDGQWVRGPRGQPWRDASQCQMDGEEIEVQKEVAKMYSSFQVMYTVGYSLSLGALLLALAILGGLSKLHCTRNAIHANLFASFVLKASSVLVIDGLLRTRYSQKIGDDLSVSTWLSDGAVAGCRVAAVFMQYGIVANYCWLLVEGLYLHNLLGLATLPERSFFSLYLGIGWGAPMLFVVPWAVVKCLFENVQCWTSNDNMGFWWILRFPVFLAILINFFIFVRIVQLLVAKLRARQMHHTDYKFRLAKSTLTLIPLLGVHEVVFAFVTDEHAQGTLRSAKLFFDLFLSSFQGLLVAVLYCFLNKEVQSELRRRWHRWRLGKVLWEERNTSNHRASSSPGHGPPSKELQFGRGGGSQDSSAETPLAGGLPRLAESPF
As to the kind of experiment: [125I]-Glucagon binding (SPA), human Gcg receptor. Particulars: read-out: hGLcgR Ki, nM (SEM, n). How it is done:
as §1, §2, §3
The human Gcg receptor binding assays are performed using a Scintillation Proximity Assay (SPA) format with wheat germ agglutinin (WGA) beads (Perkin Elmer). The binding buffer contains 25 mM 4-(2-hydroxyethyl)-1-piperazineethanesulfonic acid (HEPES), pH 7.4, 2.5 mM CaCl2, 1 mM MgCl2, 0.1% (w/v) bacitracin (Research Products), 0.003% (w/v) Polyoxyethylenesorbitan monolaurate (TWEEN©-20), and Roche Complete™ Protease Inhibitors without EDTA. […] Plates are sealed and mixed on a plate shaker (setting 6) for 1 minute and read with a PerkinElmer Trilux MicroBeta© scintillation counter after 12 hours of incubation/settling time at room temperature.
as §4

A further experiment has as its target human GLP-1R (Homo sapiens, UniProt P43220). Description: [125I]-GLP-1 binding (SPA), human GLP-1 receptor. On the set-up: expressed in transfected cells; crude membranes. Particulars: read-out: hGLP1R Ki, (nM) (SEM, n). On the procedure:
as §1, §2, §3
The binding buffer contains 25 mM HEPES, pH 7.4, 2.5 mM CaCl2, 1 mM MgCl2, 0.1% (w/v) bacitracin, 0.003% (w/v) TWEEN©-20, and Roche Complete™ Protease Inhibitors without EDTA.
as §4

Chain of human GLP-1R (P43220 24-463): as the sequence (P43220 24-463) above

On to `CC[C@H](C)[C@H](NC(=O)[C@H](Cc1ccccc1)NC(=O)[C@H](C)NC(=O)C(C)(C)NC(=O)[C@H](CCC(N)=O)NC(=O)[C@H](C)NC(=O)[C@H](CCCCNC(=O)COCCOCCNC(=O)COCCOCCNC(=O)CC[C@H](NC(=O)CCCCCCCCCCCCCCCCCCC(=O)O)C(=O)O)NC(=O)[C@H](CCCCN)NC(=O)[C@H](CC(=O)O)NC(=O)[C@H](CC(C)C)NC(=O)[C@H](CC(C)C)NC(=O)[C@@H](NC(=O)[C@H](CO)NC(=O)[C@H](Cc1ccc(O)cc1)NC(=O)[C@H](CC(=O)O)NC(=O)[C@H](CO)NC(=O)[C@@H](NC(=O)[C@H](Cc1ccccc1)NC(=O)[C@@H](NC(=O)CNC(=O)[C@H](CCC(=O)O)NC(=O)C(C)(C)NC(=O)[C@@H](N)Cc1ccc(O)cc1)[C@@H](C)O)[C@@H](C)O)[C@@H](C)CC)C(=O)N[C@@H](CCC(=O)O)C(=O)N[C@@H](Cc1ccc(O)cc1)C(=O)N[C@@H](CC(C)C)C(=O)N[C@@H](CC(C)C)C(=O)N[C@@H](CCC(=O)O)C(=O)NCC(=O)NCC(=O)N1CCC[C@H]1C(=O)N[C@@H](CO)C(=O)N[C@@H](CO)C(=O)NCC(=O)N[C@@H](C)C(=O)N1CCC[C@H]1C(=O)N1CCC[C@H]1C(=O)N1CCC[C@H]1C(=O)N[C@@H](CO)C(N)=O` [Example 6] (H-Y[Aib]EGTFTSDYSILLDKK([AEEA-AEEA-γGlu-C20 diacid])AQ[Aib]AFIEYLLEGGPSSGAPPPS-NH2), for which the results for the 50% effective concentration (EC50) in experiment [1] and in experiment [2] were 0.0899 nM and 0.374 nM, respectively. The figures for the inhibition constant (Ki) on human GIP receptor, at human Gcg receptor and at human GLP-1R were 0.0835 nM, 55.8 nM and 6.71 nM, respectively.
For `CC[C@H](C)[C@H](NC(=O)[C@H](Cc1ccccc1)NC(=O)[C@H](C)NC(=O)C(C)(C)NC(=O)[C@H](CCC(N)=O)NC(=O)[C@H](C)NC(=O)[C@H](CCCCNC(=O)COCCOCCNC(=O)COCCOCCNC(=O)CC[C@H](NC(=O)CCCCCCCCCCCCCCCCCCC(=O)O)C(=O)O)NC(=O)[C@H](CO)NC(=O)[C@H](CC(=O)O)NC(=O)[C@H](CC(C)C)NC(=O)[C@H](CC(C)C)NC(=O)[C@@H](NC(=O)[C@H](CO)NC(=O)[C@H](Cc1ccc(O)cc1)NC(=O)[C@H](CC(=O)O)NC(=O)[C@H](CO)NC(=O)[C@@H](NC(=O)[C@H](Cc1ccccc1)NC(=O)[C@@H](NC(=O)CNC(=O)[C@H](CCC(=O)O)NC(=O)C(C)(C)NC(=O)[C@@H](N)Cc1ccc(O)cc1)[C@@H](C)O)[C@@H](C)O)[C@@H](C)CC)C(=O)N[C@@H](CCC(=O)O)C(=O)N[C@@H](Cc1ccc(O)cc1)C(=O)N[C@@H](CC(C)C)C(=O)N[C@@H](CC(C)C)C(=O)N[C@@H](CCC(=O)O)C(=O)NCC(=O)NCC(=O)N1CCC[C@H]1C(=O)N[C@@H](CO)C(=O)N[C@@H](CO)C(=O)NCC(=O)N[C@@H](C)C(=O)N1CCC[C@H]1C(=O)N1CCC[C@H]1C(=O)N1CCC[C@H]1C(=O)N[C@@H](CO)C(N)=O` [Example 7] (H-Y[Aib]EGTFTSDYSILLDSK([AEEA-AEEA-γGlu-C20 diacid])AQ[Aib]AFIEYLLEGGPSSGAPPPS-NH2), in that order: 0.461 nM, 0.47 nM, 0.252 nM, 198 nM and 43.3 nM.
For `CC[C@H](C)[C@H](NC(=O)[C@H](CC(C)C)NC(=O)[C@H](Cc1ccc(O)cc1)NC(=O)[C@H](CCC(=O)O)NC(=O)[C@@H](NC(=O)[C@H](Cc1ccccc1)NC(=O)[C@H](C)NC(=O)C(C)(C)NC(=O)[C@H](CCC(N)=O)NC(=O)[C@H](C)NC(=O)[C@H](CCCCNC(=O)COCCOCCNC(=O)COCCOCCNC(=O)CC[C@H](NC(=O)CCCCCCCCCCCCCCCCCCC(=O)O)C(=O)O)NC(=O)[C@H](CCCCN)NC(=O)[C@H](CC(=O)O)NC(=O)[C@H](CC(C)C)NC(=O)[C@H](CC(C)C)NC(=O)[C@@H](NC(=O)[C@H](CO)NC(=O)[C@H](Cc1ccc(O)cc1)NC(=O)[C@H](CC(=O)O)NC(=O)[C@H](CO)NC(=O)[C@@H](NC(=O)[C@H](Cc1ccccc1)NC(=O)[C@@H](NC(=O)CNC(=O)[C@H](CCC(=O)O)NC(=O)C(C)(C)NC(=O)[C@@H](N)Cc1ccc(O)cc1)[C@@H](C)O)[C@@H](C)O)[C@@H](C)CC)[C@@H](C)CC)C(=O)N[C@@H](CCC(=O)O)C(=O)NCC(=O)NCC(=O)N1CCC[C@H]1C(=O)N[C@@H](CO)C(=O)N[C@@H](CO)C(=O)NCC(=O)N[C@@H](C)C(=O)N1CCC[C@H]1C(=O)N1CCC[C@H]1C(=O)N1CCC[C@H]1C(=O)N[C@@H](CO)C(N)=O` [Example 8], the EC50 in experiment [1] came to 0.0848 nM; in experiment [2], 0.148 nM. The figures for the inhibition constant (Ki) at human GIP receptor, on human Gcg receptor and on human GLP-1R were 0.0772 nM, 206 nM and 2.84 nM, respectively.
On to `CC[C@H](C)[C@H](NC(=O)[C@H](CC(C)C)NC(=O)[C@H](Cc1ccc(O)cc1)NC(=O)[C@@H](CCC(=O)O)NC(=O)[C@@H](NC(=O)[C@H](Cc1ccccc1)NC(=O)[C@H](CCC(=O)O)NC(=O)C(C)(C)NC(=O)[C@H](CCC(N)=O)NC(=O)[C@H](C)NC(=O)[C@H](CCCCNC(=O)COCCOCCNC(=O)COCCOCCNC(=O)CC[C@H](NC(=O)CCCCCCCCCCCCCCCCCCC(=O)O)C(=O)O)NC(=O)[C@H](CCC(=O)O)NC(=O)[C@H](CC(=O)O)NC(=O)[C@H](CC(C)C)NC(=O)[C@](C)(CC(C)C)NC(=O)[C@@H](NC(=O)[C@H](CO)NC(=O)[C@H](CC(C)C)NC(=O)[C@H](CC(=O)O)NC(=O)[C@H](CO)NC(=O)[C@@H](NC(=O)[C@](C)(Cc1ccccc1F)NC(=O)[C@@H](NC(=O)CNC(=O)[C@H](CCC(=O)O)NC(=O)C(C)(C)NC(=O)[C@@H](N)Cc1ccc(O)cc1)[C@@H](C)O)[C@@H](C)O)[C@@H](C)CC)[C@@H](C)CC)C(=O)N[C@@H](CCC(=O)O)C(=O)NCC(=O)NCC(=O)N1CCC[C@H]1C(=O)N[C@@H](CO)C(=O)N[C@@H](CO)C(=O)NCC(=O)N[C@@H](C)C(=O)N1CCC[C@H]1C(=O)N1CCC[C@H]1C(=O)N1CCC[C@H]1C(=O)N[C@@H](CO)C(N)=O` [Example 183] (H-Y[Aib]EGT[αMePhe(2-F)]TSDLSI[αMeL]LDEK([AEEA-AEEA-γGlu-C20 diacid])AQ[Aib]EFI[dE]YLIEGGPSSGAPPPS-NH2), for which the EC50 in experiment [1] amounted to 0.0615 nM. The Ki at human GIP receptor is 0.0869 nM; at human Gcg receptor it was 304 nM; on human GLP-1R, 4.11 nM.
